Results from paper PMC4406325 (MedChemComm, 2014).

The compounds below were run against CDK9/cyclin T1 (Homo sapiens, UniProt P50750) (assay: CDK9/Cyclin T1 kinase assay). Details: among all compounds tested at molecular level.
Type: biochemical

Chain of CDK9/cyclin T1 (P50750 whole entry): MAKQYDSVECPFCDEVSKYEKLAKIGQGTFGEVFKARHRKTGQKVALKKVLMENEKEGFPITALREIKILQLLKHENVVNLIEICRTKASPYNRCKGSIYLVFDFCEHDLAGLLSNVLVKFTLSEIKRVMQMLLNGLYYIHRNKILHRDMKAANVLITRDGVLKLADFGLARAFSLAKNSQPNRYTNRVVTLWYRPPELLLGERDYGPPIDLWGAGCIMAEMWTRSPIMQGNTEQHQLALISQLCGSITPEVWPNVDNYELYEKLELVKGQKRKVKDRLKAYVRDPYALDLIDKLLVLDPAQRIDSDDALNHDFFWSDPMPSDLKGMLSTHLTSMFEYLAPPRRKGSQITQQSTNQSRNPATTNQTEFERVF
Chain of CDK9/cyclin T1 (O60563 whole entry partner): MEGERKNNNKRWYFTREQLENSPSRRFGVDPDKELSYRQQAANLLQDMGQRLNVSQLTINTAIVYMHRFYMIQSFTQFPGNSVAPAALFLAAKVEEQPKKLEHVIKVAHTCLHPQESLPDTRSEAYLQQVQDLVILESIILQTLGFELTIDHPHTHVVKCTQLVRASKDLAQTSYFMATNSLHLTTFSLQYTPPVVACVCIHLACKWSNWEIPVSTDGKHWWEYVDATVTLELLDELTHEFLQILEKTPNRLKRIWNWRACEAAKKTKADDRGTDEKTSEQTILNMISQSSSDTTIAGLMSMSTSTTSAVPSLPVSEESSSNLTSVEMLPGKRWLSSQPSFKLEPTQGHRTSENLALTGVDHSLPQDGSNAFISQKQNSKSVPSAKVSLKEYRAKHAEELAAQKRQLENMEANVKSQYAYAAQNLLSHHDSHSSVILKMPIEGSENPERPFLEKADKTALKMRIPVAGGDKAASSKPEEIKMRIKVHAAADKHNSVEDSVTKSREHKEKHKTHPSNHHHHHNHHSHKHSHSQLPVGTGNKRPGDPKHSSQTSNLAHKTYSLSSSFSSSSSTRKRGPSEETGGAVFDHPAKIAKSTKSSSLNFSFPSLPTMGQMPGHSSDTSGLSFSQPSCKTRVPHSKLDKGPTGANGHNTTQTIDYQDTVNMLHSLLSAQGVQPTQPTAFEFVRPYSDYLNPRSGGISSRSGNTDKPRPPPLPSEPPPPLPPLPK

selectivity to CDK9 over CDK2 (in words) | Structure (SMILES)
moderate selectivity to CDK9 over CDK2 | Fc1cnc(Nc2cccc(N3CCOCC3)c2)nc1Nc1c(F)cccc1F [Compound 6d]
moderate selectivity to CDK9 over CDK2 | O=C(Nc1cccc(Nc2ncc(F)c(Nc3ccc(F)cc3)n2)c1)c1ccncc1 [Compound 9d]

Each compound was assayed on HIV-1 NL4-3 (assay: Anti-HIV-1 assay). Details: HIV-1 NL4-3, MT4 cells.
Type: cell-based

Structure (SMILES) | inhibition in anti-HIV-1 assay (in words)
Fc1cnc(Nc2cccc(N3CCOCC3)c2)nc1Nc1c(F)cccc1F [Compound 6d] | Appreciable inhibition
CC(=O)N1CCCN(C(=O)c2cccc(Nc3ncc(F)c(Nc4ccc(F)cc4)n3)c2)CC1 [Compound 11e] | Appreciable inhibition
CN(C)CCNC(=O)c1cccc(Nc2ncc(F)c(Nc3ccc(F)cc3)n2)c1 [Compound 11f] | Appreciable inhibition

What follows are compounds tested on KB (nasopharyngeal carcinoma) (assay: SRB cytotoxic activity assay, KB). Details: 3 days in culture, average of three independent measurements.
Type: cell-based, human

Structure (SMILES) | GI50 KB [µM]
O=C(Nc1cc(Cl)cc(Cl)c1)c1cccc(Nc2ncc(F)c(Nc3ccc(F)cc3)n2)c1 [Compound 11m] | 20.08 ± 1.06
O=C(Nc1cccc(Nc2ncc(F)c(Nc3ccc(F)cc3)n2)c1)c1ccccc1 [Compound 9a] | > 10
COc1ccc(N2CCOCC2)cc1Nc1ncc(F)c(Nc2ccc(F)cc2)n1 [Compound 6e] | > 10
Fc1cnc(Nc2cccc(N3CCOCC3)c2)nc1Nc1cc(Cl)cc(Cl)c1 [Compound 6a] | 14.80 ± 1.02
Fc1cnc(Nc2cccc(N3CCOCC3)c2)nc1Nc1c(F)cccc1F [Compound 6d] | > 10
O=C(Nc1ccc(N2CCOCC2)cc1)c1cccc(Nc2ncc(F)c(Nc3ccc(F)cc3)n2)c1 [Compound 11i] | > 10
COc1ccc(N2CCN(C)CC2)cc1Nc1ncc(F)c(Nc2ccc(F)cc2)n1 [Compound 6f] | 0.96 ± 0.21
COc1ccc(NC(=O)c2cccc(Nc3ncc(F)c(Nc4ccc(F)cc4)n3)c2)cc1 [Compound 11j] | > 10
O=C(Nc1ccc2c(c1)OCO2)c1cccc(Nc2ncc(F)c(Nc3ccc(F)cc3)n2)c1 [Compound 11l] | 14.08 ± 0.79
CN1CCC(C(=O)Nc2cccc(Nc3ncc(F)c(Nc4ccc(F)cc4)n3)c2)CC1 [Compound 9f] | 1.70 ± 0.80
O=C(Nc1cccc(Nc2ncc(F)c(Nc3ccc(F)cc3)n2)c1)c1ccncc1 [Compound 9d] | 5.28 ± 3.49
O=C(Nc1nccs1)c1cccc(Nc2ncc(F)c(Nc3ccc(F)cc3)n2)c1 [Compound 11o] | > 10
O=C(Nc1cccc(Nc2ncc(F)c(Nc3ccc(F)cc3)n2)c1)c1cccc([N+](=O)[O-])c1 [Compound 9b] | 15.10 ± 1.16
O=C(NCCO)c1cccc(Nc2ncc(F)c(Nc3ccc(F)cc3)n2)c1 [Compound 11g] | 12.39 ± 2.48
COc1cc(NC(=O)c2cccc(Nc3ncc(F)c(Nc4ccc(F)cc4)n3)c2)cc(OC)c1 [Compound 11k] | 15.47 ± 1.58
CN(C)CC(=O)Nc1cccc(Nc2ncc(F)c(Nc3ccc(F)cc3)n2)c1 [Compound 9g] | 1.26 ± 0.05

Structure (SMILES) | GI50 KB [µM]
O=C(c1cccc(Nc2ncc(F)c(Nc3ccc(F)cc3)n2)c1)N1CCOCC1 [Compound 11a] | 14.58 ± 2.93
COCC(=O)Nc1cccc(Nc2ncc(F)c(Nc3ccc(F)cc3)n2)c1 [Compound 9h] | 6.25 ± 1.38
CN(C)c1ccc(C(=O)Nc2cccc(Nc3ncc(F)c(Nc4ccc(F)cc4)n3)c2)cc1 [Compound 9c] | > 10
CC(=O)N1CCCN(C(=O)c2cccc(Nc3ncc(F)c(Nc4ccc(F)cc4)n3)c2)CC1 [Compound 11e] | 14.88 ± 2.20
Cn1ccnc1NC(=O)c1cccc(Nc2ncc(F)c(Nc3ccc(F)cc3)n2)c1 [Compound 11p] | 14.57 ± 1.70
CS(=O)(=O)N1CCN(C(=O)c2cccc(Nc3ncc(F)c(Nc4ccc(F)cc4)n3)c2)CC1 [Compound 11d] | 20.29 ± 4.09
CN1CC[C@H](c2c(O)cc(O)c3c(=O)cc(-c4ccccc4Cl)oc23)[C@H](O)C1 [FVP, flavopiridol, reference compound] | 0.16 ± 0.007
O=C(c1cccc(Nc2ncc(F)c(Nc3ccc(F)cc3)n2)c1)N1CCCCC1 [Compound 11c] | 14.78 ± 2.53
O=C(Nc1ccccn1)c1cccc(Nc2ncc(F)c(Nc3ccc(F)cc3)n2)c1 [Compound 11n] | 20.03 ± 10.96
Fc1cnc(Nc2cccc(N3CCOCC3)c2)nc1Nc1ccc(Cl)c(Cl)c1 [Compound 6b] | > 10
O=C(Nc1cccc(Nc2ncc(F)c(Nc3ccc(F)cc3)n2)c1)c1cnccn1 [Compound 9e] | 23.55 ± 3.92
CN1CCN(C(=O)c2cccc(Nc3ncc(F)c(Nc4ccc(F)cc4)n3)c2)CC1 [Compound 11b] | 12.58 ± 3.05
CN(C)CCNC(=O)c1cccc(Nc2ncc(F)c(Nc3ccc(F)cc3)n2)c1 [Compound 11f] | 4.16 ± 0.69
Fc1ccc(Nc2nc(Nc3cccc(N4CCOCC4)c3)ncc2F)cc1 [Compound 6c] | > 10
O=C(Nc1ccc(C(F)(F)F)cc1)c1cccc(Nc2ncc(F)c(Nc3ccc(F)cc3)n2)c1 [Compound 11h] | > 10
